# In article PMC4941640 (Cancer cell, 2015):
# Read-outs that look alike come from different tables or passages of the source.
# Tests used:
# A549 cells [1] = experiment: cells; details: Homo sapiens, A549, read-out: EC50, induction of CHOP protein
# [2] = all dosing schedules tested, tumor-bearing mice, po
# [3] = system: HEK293T cells stably expressing TCRα-GFP; experiment: cells; details: Homo sapiens, HEK-293T, read-out: EC50, accumulation of TCRα-GFP
# mTOR = mTOR vs p97, dose titration
# PIK3C3 = PIK3C3 vs p97, dose titration
# HCT116 xenograft tumors = details: 100 mg/kg single oral dose, 6 hr, nude mice
# AMO-1 = experiment: cells; details: Homo sapiens, AMO1, read-out: IC50 in vitro, AMO-1
# DNA-PK [4] = biological target: T1, DNA-PK (Homo sapiens, UniProt P78527); details: DNA-PK vs p97, dose titration
# A549 cells [5] = experiment: p62 modulation by immunofluorescence; type: cell-based
# HCT 116 T688A xenografts = details: 90 mg/kg
# HCT116 or A549 tumors = details: single administration, nude mice bearing HCT116 or A549 tumors
# 350 cancer cell lines = experiment: cells; details: 72 h
# DNA-PK [6] = biological target: T1, DNA-PK; details: A549 cells, 6 hr, nuclear phospho-H2AX
# AMO-1 xenograft = details: after 2 cycles of treatment, qd4/3off
# [7] = system: HEK293 cells expressing GFPu; experiment: cells; details: Homo sapiens, HEK293, read-out: EC50, accumulation of GFPu
smiles,measurement,setting,value
"Cc1cc2c(C(N)=O)cccc2n1-c1nc2c(c(NCc3ccccc3)n1)COCC2 [CB-5083, 1-[4-(benzylamino)-5H,7H,8H-pyrano[4,3-d]pyrimidin-2-yl]-2-methyl-1H-indole-4-carboxamide]",EC50,A549 cells [1],1190 nM
same,weight loss,[2],< 10%
same,EC50,[3],730 nM
same,fold less affinity compared to p97,mTOR,128 fold
same,fold less affinity compared to p97,PIK3C3,158 fold
same,decrease of p62 protein levels in tumor,HCT116 xenograft tumors,60%
same,IC50,AMO-1,81 nM
same,fold less affinity compared to p97,DNA-PK [4],29.6 fold
same,effect on p62 levels,A549 cells [5],rapidly cleared from cells
same,tumor growth of T688A mutant model,HCT 116 T688A xenografts,not inhibited
same,accumulation of poly-ubiquitin or CHOP in tumor tissue,HCT116 or A549 tumors,strong and sustained induction of polyubiquitin
same,EC50,"350 cancer cell lines; read-out: EC50 of cell viability, lower end of range in panel",≥ 81 nM
same,EC50,"350 cancer cell lines; read-out: EC50 of cell viability, upper end of range in panel",≤ 2100 nM
same,tumor growth inhibition (TGI),"HCT116 xenograft; 50 mg/kg po, qd",62%
same,tumor growth inhibition (TGI),"HCT116 xenograft; 100 mg/kg po, qd4/3off",78%
same,inhibition of DNA-PK in cell-based assay,DNA-PK [6],not to inhibit DNA-PK at concentrations that caused cell death
same,complete regressions of tumors (animals),AMO-1 xenograft,6/12
same,EC50,[7],1050 nM
CC(C)n1nc(-c2ccc3oc(N)nc3c2)c2c(N)ncnc21 [INK-128],effect on p62 levels,A549 cells [5],decrease in p62 levels
Cc1cc(OCc2nnc(SC3CCCC3)n2-c2cccnc2)ccc1-c1ccc(S(C)(=O)=O)cc1 [NMS-873],effect on p62 levels,A549 cells [5],decreases in p62 levels
CO/C1=C\C(C)=C\[C@@H](C)[C@@H](O)[C@@H](C)C/C(C)=C/C=C/[C@H](OC)[C@@H]([C@@H](C)[C@@H](O)[C@H](C)[C@@]2(O)C[C@@H](O)[C@H](C)[C@@H](C(C)C)O2)OC1=O [bafilomycin A1],effect on p62 levels,A549 cells [5],accumulation of p62 in peri-nuclear foci
CC(C)C[C@H](NC(=O)[C@H](Cc1ccccc1)NC(=O)c1cnccn1)B(O)O [bortezomib],effect on p62 levels,A549 cells [5],decreases in p62 levels
